Measured values: patent publication US10829473B2, “Modulators of the cystic fibrosis transmembrane conductance regulator protein and methods of use” (AbbVie Overseas S.Á.R.L., priority 2017, dated 2020)
pEC50: −log10 of the molar value. Like-named read-outs stand apart in the source and are kept apart here. Marks after values point to notes of the source that are not given here.

Target: T1, F508delCFTR (Homo sapiens, UniProt P13569, DEL508-508)
T1 construct: expressed in transfected cells; host or cells: CFBE41o- human lung derived epithelial cells (CFBE41o-F508delCFTR-HRP), doxycycline-inducible
Assay: Cell Surface Expression-Horse Radish Peroxidase (CSE-HRP) Assay;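 as to EC50 (with co-corrector): co-corrector chromenyl benzoic acid corrector at 2 or 3 µM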
Format: cell-based
Settings: for Maximum % activity (with co-corrector) / Emax: maximum at any tested concentration; for Emax: read-out: Maximum % activity (without co-corrector)
Experimental: A cellular assay for measuring the F508delCFTR cell surface expression after correction with test compounds either without or with a co-corrector (2 μM of 3-[(2R,4R)-4-({[1-(2,2-difluoro-1,3-benzodioxol-5-yl)cyclopropyl]carbonyl}amino)-7-methoxy-3,4-dihydro-2H-chromen-2-yl]benzoic acid), was developed in human lung derived epithelial cell line (CFBE4lo−) (Veit G et al, (2012) Mol Biol Cell. 23(21): 4188-4202). The development was achieved by expressing the F508delCFTR mutation along with a horseradish peroxidase (HRP) in the fourth exofacial loop, and then measuring the HRP activity using luminescence readout from these cells, CFBE410-F508delCFTR-HRP, that were incubated overnight with the test corrector compounds, either without or with the co-corrector. For this primary assay, the CFBE410-F508delCFTR-HRP cells were plated in 384-well plates (Greiner Bio-one; Cat 781080) at 4,000 cells/well along with 0.5 μg/mL doxycycline to induce the F508delCFTR-HRP expression and further incubated at 37° C., 5% CO2 for 68-72 hours. The test compounds were then added either without or with a co-corrector at the required concentrations and further incubated for 18-24 hours at 33° C. The highest concentration tested was 20 μM or 30 μM (GI-1 to GIII-36) with an 8-point concentration response curve using a 3-fold dilution in both the test compound without or with the co-corrector. Three replicate plates were run to determine one EC50. All plates contained negative controls (dimethyl sulfoxide, DMSO) and positive control (2 μM or 3 μM (GI-1 to GIII-36) of 3-[(2R,4R)-4-({[1-(2,2-difluoro-1,3-benzodioxol-5-yl)cyclopropyl]carbonyl}amino)-7-methoxy-3,4-dihydro-2H-chromen-2-yl]benzoic acid) as well as on-plate concentration response of the positive control. Post incubation, the plates were washed 5× times with Dulbecco's phosphate buffered saline (DPBS), followed by the addition of the HRP substrate, luminol (50 4), and measuring the HRP activity using luminescence readout on EnVision® Multilabel Plate Reader (Perkin Elmer; product number 2104-0010). The raw counts from the experiment were analyzed using Accelrys® Assay Explorer v3.3.
Z′ greater than 0.5 was used as passing quality control criteria for the plates.
The Z′ is defined as: 1−[3*SDPositve Control+3*SDNegative Control/Absolute(MeanPositive Control−MeanNegative Control)] wherein “SD” is standard deviation.
The % activity measured at each of the 8 test concentrations of the test compound added either without or with a co-corrector (2 μM or 3 μM (GI-1 to GIII-36) of 3-[(2R,4R)-4-({[1-(2,2-difluoro-1,3-benzodioxol-5-yl)cyclopropyl]carbonyl}amino)-7-methoxy-3,4-dihydro-2H-chromen-2-yl]benzoic acid) was normalized to the on-plate positive control using the following formulae: % activity (Test compound without co-corrector)=[(test compound without co-corrector response DMSO response)/(positive control response DMSO response)]*100 % activity (Test compound with co-corrector)=[(test compound with co-corrector response DMSO response)/(positive control response DMSO response)]*100
The maximum % activity achieved for the test compound either without or with a co-corrector at any tested concentration is presented in Table 6 along with the respective EC50's calculated using the following general sigmoidal curve with variable Hill slope equation (described as Model 42 in the Accelrys® Assay Explorer v3.3 software): y=(a−d)/(1+(x/c)b)+d
General sigmoidal curve with concentration, response, top, bottom, EC50 and Hill slope. This model describes a sigmoidal curve with an adjustable baseline, a. The equation can be used to fit curves where response is either increasing or decreasing with respect to the independent variable, “x”.
“x” is a concentration of drug under test.
“a” is the maximum response, and “d” is the minimum response
“c” is the inflection point (EGO for the curve. That is, “y” is halfway between the lower and upper asymptotes when x=c.
“b” is the slope-factor or Hill coefficient. […]

[1] = test compound with co-corrector
[2] = test compound with co-corrector, read-out: EC50 (with co-corrector)
[3] = test compound without co-corrector
[4] = test compound without co-corrector, read-out: EC50 (without co-corrector)
[5] = test compound alone, without co-corrector, read-out: EC50 (without co-corrector)
[6] = with co-corrector, read-out: EC50 (with co-corrector)

T1 sequence (P13569 with tags, fused parts or gaps DEL508-508): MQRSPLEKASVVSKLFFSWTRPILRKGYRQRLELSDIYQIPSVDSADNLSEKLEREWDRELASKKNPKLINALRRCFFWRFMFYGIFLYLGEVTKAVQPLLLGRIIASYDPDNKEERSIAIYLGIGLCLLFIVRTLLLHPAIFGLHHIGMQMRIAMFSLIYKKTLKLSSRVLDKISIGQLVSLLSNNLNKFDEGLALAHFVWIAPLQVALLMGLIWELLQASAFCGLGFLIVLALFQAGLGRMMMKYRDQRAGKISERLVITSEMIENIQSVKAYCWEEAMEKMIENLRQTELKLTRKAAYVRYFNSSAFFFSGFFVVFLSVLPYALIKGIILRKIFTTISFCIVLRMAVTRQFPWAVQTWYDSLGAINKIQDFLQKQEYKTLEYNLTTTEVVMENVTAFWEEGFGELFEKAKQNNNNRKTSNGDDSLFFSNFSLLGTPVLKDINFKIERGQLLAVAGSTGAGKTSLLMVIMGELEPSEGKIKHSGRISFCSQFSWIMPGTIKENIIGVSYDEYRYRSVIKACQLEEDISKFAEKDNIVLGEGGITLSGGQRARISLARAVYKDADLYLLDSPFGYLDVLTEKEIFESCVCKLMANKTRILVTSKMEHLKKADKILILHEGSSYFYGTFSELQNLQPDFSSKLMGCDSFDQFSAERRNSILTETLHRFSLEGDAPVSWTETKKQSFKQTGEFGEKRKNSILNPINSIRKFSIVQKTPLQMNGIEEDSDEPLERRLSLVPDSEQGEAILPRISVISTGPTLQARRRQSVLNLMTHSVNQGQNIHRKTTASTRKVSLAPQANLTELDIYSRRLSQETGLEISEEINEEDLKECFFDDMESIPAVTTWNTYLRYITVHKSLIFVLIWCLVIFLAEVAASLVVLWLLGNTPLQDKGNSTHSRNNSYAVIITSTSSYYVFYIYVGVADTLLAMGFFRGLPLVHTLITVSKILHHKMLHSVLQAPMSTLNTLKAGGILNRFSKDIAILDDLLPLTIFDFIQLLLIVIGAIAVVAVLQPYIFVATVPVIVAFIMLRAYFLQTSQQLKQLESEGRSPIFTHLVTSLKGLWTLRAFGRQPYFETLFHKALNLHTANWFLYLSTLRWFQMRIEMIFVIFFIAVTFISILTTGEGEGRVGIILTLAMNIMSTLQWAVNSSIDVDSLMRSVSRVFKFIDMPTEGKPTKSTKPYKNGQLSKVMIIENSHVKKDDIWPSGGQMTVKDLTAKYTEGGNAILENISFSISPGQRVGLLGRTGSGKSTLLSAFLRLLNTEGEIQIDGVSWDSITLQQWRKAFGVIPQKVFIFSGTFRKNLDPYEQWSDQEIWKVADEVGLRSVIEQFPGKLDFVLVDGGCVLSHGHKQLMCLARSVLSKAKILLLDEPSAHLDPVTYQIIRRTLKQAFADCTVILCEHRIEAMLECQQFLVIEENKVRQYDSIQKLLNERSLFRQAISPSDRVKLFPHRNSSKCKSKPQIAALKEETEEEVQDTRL

Row | Structure (SMILES) | Maximum % activity (with co-corrector) [1] | pEC50 [2] | Emax [3] [%] | pEC50 [4] | pEC50 [5] | Maximum % activity (with co-corrector) (with co-corrector) | pEC50 [6] | Emax (without co-corrector) [%] | EC50 (with co-corrector) [1]
1 | O=C(O)c1ccccc1S(=O)(=O)NC(=O)C1(c2ccc(Cl)cc2Cl)CC1 [Example III-67] | – | – | – | – | < 5.00 | + (<150) | < 5.00 | < 50 | –
2 | Cc1cnc(OC(C)C)c(C2(C(=O)NS(=O)(=O)c3cccc4[nH]ncc34)CC2)c1 [Example III-131, N-(1H-indazole-4-sulfonyl)-1-{5-methyl-2-[(propan-2-yl)oxy]pyridin-3-yl}cyclopropane-1-carboxamide] | – | – | – | – | 5.00 to 5.52 | +++ (≥350) | 5.00 to 5.52 | > 150 | –
3 | Cc1cnc(N2CCCC2)c(C2(C(=O)NS(=O)(=O)c3cccc4nc(C)ccc34)CC2)c1 [GII-36, 1-[5-methyl-2-(pyrrolidin-1-yl)pyridin-3-yl]-N-(2-methylquinoline-5-sulfonyl)cyclopropane-1-carboxamide] | +++ (≥350) | 5.00 to 5.52 | 50 to 150 | 5.00 to 5.52 | – | – | – | – | –
4 | Cc1ccc(OC(C)C)c(C2(C(=O)NS(=O)(=O)c3cccc4[nH]ccc34)CC2)c1 [II-79] | – | – | – | – | > 5.52 | +++ (≥350) | > 5.52 | > 150 | –
5 | COC(=O)c1csc(S(=O)(=O)NC(=O)C2(c3ccc(Cl)cc3Cl)CC2)c1OC [Example III-11, methyl 5-{[1-(2,4-dichlorophenyl)cyclopropane-1-carbonyl]sulfamoyl}-4-methoxythiophene-3-carboxylate] | – | – | – | – | < 5.00 | + (<150) | < 5.00 | < 50 | –
6 | CC(C)Oc1cnc(C2CCC2)cc1C1(C(=O)NS(=O)(=O)c2cccc3ncccc23)CC1 [Example GI-25, 1-{2-cyclobutyl-5-[(propan-2-yl)oxy]pyridin-4-yl}-N-(quinoline-5-sulfonyl)cyclopropane-1-carboxamide] | – | – | – | – | 5.00 to 5.52 | +++ (≥350) | > 5.52 | > 150 | –
7 | COc1ccc(C2CCC2)c(C2(C(=O)NS(=O)(=O)c3cccc4ncccc34)CC2)c1 [II-46] | – | – | – | – | > 5.52 | +++ (≥350) | > 5.52 | > 150 | –
8 | CCc1cnc(OCC(C)C)c(C2(C(=O)NS(=O)(=O)c3cccc4ncccc34)CC2)c1 [Example GI-45, 1-[5-ethyl-2-(2-methylpropoxy)pyridin-3-yl]-N-(quinoline-5-sulfonyl)cyclopropane-1-carboxamide] | +++ (≥350) | > 5.52 | > 150 | > 5.52 | – | – | – | – | –
9 | COc1ccc(C2CCC2)cc1C1(C(=O)NS(=O)(=O)c2cccc3ccccc23)CC1 [Example I-2, 1-(5-cyclobutyl-2-methoxyphenyl)-N-(naphthalene-1-sulfonyl)cyclopropane-1-carboxamide] | – | – | – | – | > 5.52 | +++ (≥350) | > 5.52 | > 150 | –
10 | COc1cccc(C2(C(=O)NS(=O)(=O)c3ccccc3C)CCOCC2)c1 [Example III-81, 4-(3-methoxyphenyl)-N-(2-methylbenzene-1-sulfonyl)oxane-4-carboxamide] | – | – | – | – | < 5.00 | + (<150) | < 5.00 | < 50 | –
11 | COc1ncc(C(F)(F)F)cc1C1(C(=O)NS(=O)(=O)c2cccc3[nH]ccc23)CC1 [Example I-22, N-(1H-indole-4-sulfonyl)-1-[2-methoxy-5-(trifluoromethyl)pyridin-3-yl]cyclopropane-1-carboxamide] | – | – | – | – | 5.00 to 5.52 | +++ (≥350) | > 5.52 | > 150 | –

The remaining lines, values ahead:

Row | Maximum % activity (with co-corrector) [1] | pEC50 [2] | Emax [3] [%] | pEC50 [4] | pEC50 [5] | Maximum % activity (with co-corrector) (with co-corrector) | pEC50 [6] | Emax (without co-corrector) [%] | EC50 (with co-corrector) [1] | Structure (SMILES)
12 | +++ (≥350) | > 5.52 | > 150 | > 5.52 | – | – | – | – | – | Cc1ccc2c(S(=O)(=O)NC(=O)C3(c4cc(N5CCCC5)cnc4OCC(C)C)CC3)cccc2n1 [Example GI-69, 1-[2-(2-methylpropoxy)-5-(pyrrolidin-1-yl)pyridin-3-yl]-N-(2-methylquinoline-5-sulfonyl)cyclopropane-1-carboxamide]
13 | – | – | – | – | > 5.52 | +++ (≥350) | > 5.52 | > 150 | – | CCOc1ccc(C(C)(C)OC)cc1C1(C(=O)NS(=O)(=O)c2cccc3ncccc23)CC1 [II-97]
14 | + (<150) | – | < 50 | < 5.00 | – | – | – | – | ++^a | COc1nc(N)ccc1C1(C(=O)NS(=O)(=O)c2cccc3ncccc23)CC1 [GIII-30]
15 | – | – | – | – | 5.00 to 5.52 | +++ (≥350) | > 5.52 | > 150 | – | COc1cc(C2(C(=O)NS(=O)(=O)c3cccc4ncccc34)CC2)c(OC(C)C)cn1 [Example GI-16, 1-{2-methoxy-5-[(propan-2-yl)oxy]pyridin-4-yl}-N-(quinoline-5-sulfonyl)cyclopropane-1-carboxamide]
16 | +++ (≥350) | > 5.52 | > 150 | > 5.52 | – | – | – | – | – | CC(C)COc1ncc(C2CCC2)cc1C1(C(=O)NS(=O)(=O)c2cccc3ncccc23)CC1 [Example GI-51, 1-[5-cyclobutyl-2-(2-methylpropoxy)pyridin-3-yl]-N-(quinoline-5-sulfonyl)cyclopropane-1-carboxamide]
17 | +++ (≥350) | 5.00 to 5.52 | 50 to 150 | 5.00 to 5.52 | – | – | – | – | – | Cc1cnc(N(C)C)c(C2(C(=O)NS(=O)(=O)c3cccc4ncccc34)CC2)c1 [GII-41, 1-[2-(dimethylamino)-5-methylpyridin-3-yl]-N-(quinoline-5-sulfonyl)cyclopropane-1-carboxamide]
18 | – | – | – | – | > 5.52 | +++ (≥350) | > 5.52 | > 150 | – | COc1ccc2c(S(=O)(=O)NC(=O)C3(c4cc(C5CC5)cnc4OC(C)C)CC3)cccc2n1 [II-95]
19 | – | – | – | – | 5.00 to 5.52 | ++ (≥150 and <350) | 5.00 to 5.52 | < 50 | – | O=C(NS(=O)(=O)c1cccc(C(F)(F)F)c1)C1(c2ccc(Cl)cc2Cl)CC1 [Example III-15, 1-(2,4-dichlorophenyl)-N-[3-(trifluoromethyl)benzene-1-sulfonyl]cyclopropane-1-carboxamide]
20 | +++ (≥350) | > 5.52 | > 150 | 5.00 to 5.52 | – | – | – | – | – | COc1cnc(OCC2CC2)c(C2(C(=O)NS(=O)(=O)c3cccc4ncccc34)CC2)c1 [Example GI-87, 1-[2-(cyclopropylmethoxy)-5-methoxypyridin-3-yl]-N-(quinoline-5-sulfonyl)cyclopropane-1-carboxamide]
21 | – | – | – | – | < 5.00 | ++ (≥150 and <350) | 5.00 to 5.52 | < 50 | – | COC(=O)c1ccc(Cl)cc1S(=O)(=O)NC(=O)C1(c2ccc(Cl)cc2Cl)CC1 [Example III-66, methyl 4-chloro-2-{[l-(2,4-dichlorophenyl)cyclopropane-1-carbonyl]sulfamoyl}benzoate]
